The data set is described as follows: Human HepG2 cell viability assay in 384 well format. Type of data set: toxicity, cell-based. Further details: dose 125 nL, time 70.5 hour; cytotoxicity at 70.5 h: concentration not given beside the values. The following applies: HepG2 cells, read-out: Inhibition.
On to `CC(Cn1ccnc1)NC(=O)Nc1ccccn1` (configuration not stated), for which the cytotoxicity at 70.5 h came out at 10.5%. In the case of `N#Cc1cn(C2CC2)c(=O)n(CC(O)c2ccc(Cl)cc2)c1=O` (configuration not stated), the cytotoxicity at 70.5 h was -3.7%. The result for `Cc1cc(C)c(CNC(=O)N2CCN(c3nccs3)CC2)c(=O)[nH]1` reads 14.3%; that for `Cc1cc(C)c(CNC(=O)N2CCN(c3ccccn3)CC2)c(=O)[nH]1`, 0.786%; that for `CC(OCC1CC1)C(=O)Nc1ncn(CC(=O)N2CCCCCC2)n1` (configuration not stated), 10.7%. The result for `c1ncc2c(n1)CN(Cc1nc(-c3ccc4c(c3)OCO4)no1)CC2` reads -4.3%; that for `c1ncc2c(n1)CN(Cc1nc(-c3ccoc3)no1)CC2`, -7.49%; that for `CCn1ccnc1CN1CCN(CC(=O)NC(C2CC2)C2CC2)CC1`, 16.4%. In the case of `CC(C)NC(=O)CCNC(=O)Nc1ccc(-n2cncn2)c(F)c1` it was -11.5%; in that of `O=C(COC1CCCC1)Nc1ncn(CC(=O)N2CCCCCC2)n1`, -8.06%. Turning to `Cc1cc(C)n(CC(=O)N2CCC(Nc3cccnn3)CC2)n1`, the cytotoxicity at 70.5 h was -5.61%. In the case of `O=C(CC1=CCCCC1)Nc1ncn(CC(=O)N2CCCCCC2)n1` it was -6.09%; in that of `CN(C(=O)NCc1ccncc1)C1CCCN(c2ccccc2)C1=O` (configuration not stated), -4.3%. In the case of `CC(=O)Nc1ccc(-n2cncn2)c(F)c1`, the cytotoxicity at 70.5 h is -2.56%. In the case of `Cc1nnc2n1CCN(CC(=O)N1CCc3ccccc3C1)C2` it was 49.9%; in that of `CCCc1nc(CNCC2CCCN2c2cccnn2)cs1` (configuration not stated), 11.9%. The result for `CCc1nnc2n1CCN(CC(=O)N1CCc3ccccc3C1)C2` reads 28.5%; that for `Cc1ncsc1C(=O)N(C)Cc1ccccc1`, -4.43%; that for `c1cnnc(N2CCCC2CNCc2csc(-c3ccco3)n2)c1` (configuration not stated), -11.5%. As to `c1ccc(Cc2noc(CN3CCCCC3Cn3cncn3)n2)cc1` (configuration not stated), the cytotoxicity at 70.5 h was found to be 11.2%. In the case of `O=C(Cn1nc(-c2ccc(F)cc2)oc1=O)NCc1ccncc1`, the cytotoxicity at 70.5 h is -12.1%. The result for `Cc1ncsc1C(=O)NCc1ccnc(OCC(F)(F)F)c1` reads -11.3%; that for `Cc1cc(C(=O)NCc2ccnc(OCC(F)(F)F)c2)on1`, 16.2%. Consider `Cc1cc(C)n(-c2ccc(CNCc3ccc(F)c(F)c3)cn2)n1`, for which the cytotoxicity at 70.5 h came to 2.51%. In the case of `Cc1cc(C)n(-c2ccc(CNCc3cccc(C#N)c3)cn2)n1` it was -12.6%; in that of `Cc1ccc(C(=O)N2CCC(Oc3cccc(C)c3C)CC2)c(=O)[nH]1`, -4.54%.

Consider `Cc1ccc(C(=O)N2CCC(Oc3c(C)cccc3C)CC2)c(=O)[nH]1`, for which the cytotoxicity at 70.5 h worked out at 0.338%. For the compound `O=C(Nc1ccccn1)N(CCO)Cc1ccccc1Br`, the cytotoxicity at 70.5 h is -2.33%. As for `Cn1cc(-c2nc(CN3CCN(c4nccs4)CC3)cs2)cn1`, the cytotoxicity at 70.5 h is -5.83%.

For `Cc1cc(C)n(CC2CN(c3nnc(C)c(C)c3C#N)CCO2)n1` (configuration not stated), the cytotoxicity at 70.5 h was -3.24%. The result for `Cc1nnc(N2CCOC(CN(C)C)C2)c(C#N)c1C` (configuration not stated) reads -6.93%; that for `NC(=O)c1cnn2c1NCC(CNCCCc1ccccc1)C2` (configuration not stated), -6.83%; that for `Cc1cc(NC(=O)N(CCO)Cc2ccsc2)no1`, -4.98%. The result for `c1cnn(CC2CCCCN2Cc2noc(C3CC3)n2)c1` (configuration not stated) reads -6.47%. The result for `NC(=O)c1cnn2c1NCC(CNCCc1cccs1)C2` (configuration not stated) reads -5.82%; that for `CCc1ccc(C(=O)NC2CCc3nc(C)cn3C2)o1` (configuration not stated), -4.82%; that for `Cc1nnc(N2CCOC(C)C2)c(C#N)c1C` (configuration not stated), -8.59%. `CN1CCCC1CNC(=O)CCCOc1cccc(F)c1` (configuration not stated): the cytotoxicity at 70.5 h came to 5.1%.

Consider `Cc1cc(C)c2c(c1)C(NCc1c(C)nn(C)c1N(C)C)CCO2` (configuration not stated), for which the cytotoxicity at 70.5 h stood at 3.6%. The result for `COc1c(CNC(c2cccc(F)c2)c2nccn2C)c(C)nn1C` (configuration not stated) reads 19%.

With `Cc1nc2ccccc2c(=O)n1CCC(=O)N1CCCC1`, the cytotoxicity at 70.5 h was -6.75%. The result for `Cc1nc2ccccc2c(=O)n1CCC(=O)N1CCCCCC1` reads 1.78%; that for `Cc1ccc(C(=O)Nc2cn[nH]c2)cc1F`, 13.5%; that for `CC(C)c1noc(CCC(=O)NC(C)c2ccccn2)n1` (configuration not stated), -1.62%. Take `Cn1cc(C(=O)N2CCN(Cc3ccsc3)CC2)cn1`: the cytotoxicity at 70.5 h was found to be 14.2%. In the case of `COC1CCN(C(=O)Cc2csc(-c3ccc(F)cc3)n2)CC1` it was 0.103%; in that of `Cc1ccc(C(=O)N(C)Cc2ccc3c(c2)OCCO3)c(=O)[nH]1`, 18.5%.

In the case of `Cc1nn(C)c(N(C)C)c1CNC1CCOc2ccccc21` (configuration not stated), the cytotoxicity at 70.5 h was found to be 1.15%. In the case of `CN1CCCC1CNC(=O)CCCOc1ccc(I)cc1` (configuration not stated) it was -0.485%; in that of `CN1CCCC1CNC(=O)CCOc1ccc(Cl)cc1` (configuration not stated), -2.08%; in that of `COc1c(CNC(c2ccccc2)c2ccc(F)cc2)c(C)nn1C` (configuration not stated), 24%. On to `CNc1nc(CNC(=O)Nc2cc(Cl)ccc2F)cs1`, for which the cytotoxicity at 70.5 h was -2.3%. The result for `CNc1nc(CNC(=O)Nc2cccc(C)c2Cl)cs1` reads -1.43%; that for `COC(=O)NCCC(=O)NC(C)Cc1cccc(Br)c1` (configuration not stated), 2.65%; that for `CC(C)NC(=O)CN1CCC(c2cccc(F)c2)C1` (configuration not stated), 22.8%. In the case of `CCOCC(O)CN1CCN(C(=O)Cc2ccc3c(c2)CCC3)CC1` (configuration not stated) it was 53.8%; in that of `O=C(CSc1ccc(Br)cc1)NS(=O)(=O)c1ccc2c(c1)OCCO2`, 4.15%. The result for `COCC(c1cccc(C(F)(F)F)c1)N(C)C(=O)c1ccccn1` (configuration not stated) reads -4.66%; that for `CCC(O)CN1CCN(C(=O)Cc2ccc(C)nc2)CC1` (configuration not stated), -0.788%. `CC(C(=O)N1CCCN(Cc2ccc(C#N)cc2)CC1)n1cccn1` (configuration not stated): the cytotoxicity at 70.5 h stood at 1.6%. In the case of `CCC1CCCN(CC(=O)Nc2oc(C)c3c(C)n[nH]c(=O)c23)C1` (configuration not stated) it was -9.67%; in that of `COc1ccc(C(=O)N(C)Cc2cc(C)on2)c(OC)c1`, -4.71%; in that of `O=C(NCCn1nc2ccccn2c1=O)c1cc[nH]n1`, 0.216%. On to `O=C(NCCn1nc2ccccn2c1=O)c1cc(C2CC2)[nH]n1`, for which the cytotoxicity at 70.5 h was 2.27%. Take `Cn1cnnc1C1CCCN(C(=O)NCCc2ccccn2)C1` (configuration not stated): the cytotoxicity at 70.5 h was -4.27%. Take `Cn1cnnc1C1CCCN(C(=O)NCc2ccccc2)C1` (configuration not stated): the cytotoxicity at 70.5 h turned out to be 1.38%. In the case of `CCn1cnnc1C1CCN(C(=O)CCCOc2ccccc2)CC1` it was -3.85%. The result for `CCc1nc(CN2CCCN(C(=O)c3cc(C)on3)CC2)cs1` reads -1.87%; that for `Cc1ncsc1C(=O)N1CCC(Nc2cccnn2)CC1`, -7.04%; that for `CC(=O)Nc1nc(C(=O)N2CCC(Nc3cccnn3)CC2)cs1`, -2.92%. Consider `O=C(CSc1ccc(F)cc1)NS(=O)(=O)c1ccc2c(c1)OCCO2`, for which the cytotoxicity at 70.5 h worked out at 6.32%. Turning to `CC(CC(=O)NS(=O)(=O)c1ccc2c(c1)OCCO2)c1ccc(F)cc1` (configuration not stated), the cytotoxicity at 70.5 h was -1.76%.

Consider `CCOC1CCN(CC(=O)Nc2oc(C)c3c(C)n[nH]c(=O)c23)CC1`, for which the cytotoxicity at 70.5 h is -4.42%.

As for `CC(C)(C)c1cn2nc(N3CCCC(Cn4cncn4)C3)sc2n1` (configuration not stated), the cytotoxicity at 70.5 h is -9.57%.

In the case of `O=C(CCN1CCN(c2ccc3nncn3n2)CC1)NC1CCCC1`, the cytotoxicity at 70.5 h was -5.28%. In the case of `CC(C)(C)c1cn2nc(N3CCCC3Cn3cccn3)sc2n1` (configuration not stated), the cytotoxicity at 70.5 h came out at 0.173%. In the case of `CCCn1nc2c(cc1=O)CN(Cc1nnc(C3CC3)o1)CC2` it was 10.1%. The result for `CC(c1nc(C2CC2)no1)N1CCN(Cc2ccccc2)CC1` (configuration not stated) reads -4.04%; that for `c1cnc(-c2nc(CN3CCn4c(nnc4C4CC4)C3)cs2)nc1`, -9.61%. In the case of `CC(c1nc(C2CC2)no1)N1CCN(Cc2cccc(F)c2F)CC1` (configuration not stated) it was -10.5%. On to `Cc1ccc(-c2nc(CN3CCn4c(C)nnc4C3)cs2)o1`, for which the cytotoxicity at 70.5 h is -7.11%.

Regarding `c1ccc(-c2nc(CN3CCn4c(nnc4C4CC4)C3)cs2)cc1`, the cytotoxicity at 70.5 h was -11.8%. On to `CN(C)CC1CN(Cc2cccc(C(=O)N(C)C)c2)CCO1` (configuration not stated), for which the cytotoxicity at 70.5 h is -1.2%. In the case of `Cc1nc(C)n(CC2CCCCN2Cc2ncc(C(C)(C)C)o2)n1` (configuration not stated) it was 8%; in that of `CC(NC(=O)NCCNc1cnccn1)c1cccs1` (configuration not stated), -6.24%. In the case of `COc1c(Br)cc(Br)cc1CNC(C)Cn1cccn1` (configuration not stated) it was 16.4%; in that of `c1cc2n(n1)CC(CNCc1ccc(OCC3CC3)nc1)CN2` (configuration not stated), 1.11%; in that of `CNS(=O)(=O)Cc1ccc(CNC(=O)c2ccc(C)[nH]c2=O)cc1`, -9.88%. Take `CC(C)C(NC(=O)NCCNc1ccccn1)c1cccs1` (configuration not stated): the cytotoxicity at 70.5 h was -8.85%. The result for `Cc1cccc(-c2nc(C)nn2CC(=O)NC2CCCC2)c1` reads 3.32%. In the case of `Cc1cc(C)n(CC2CN(CC(=O)NC3CCCC3)CCO2)n1` (configuration not stated), the cytotoxicity at 70.5 h was 18.5%.

With `CCc1nnc2n1CCN(C(=O)c1cc3ccc(F)cc3nc1C)C2`, the cytotoxicity at 70.5 h was -3.67%.

Turning to `Cc1cc(CN2CCN(c3ccc4nncn4n3)C(C)C2)no1` (configuration not stated), the cytotoxicity at 70.5 h was 5.04%.

Consider `COc1ccc(CNC2CCCN(Cc3noc(C)n3)C2)cc1F` (configuration not stated), for which the cytotoxicity at 70.5 h came to 23.4%.

As for `COc1ccc(-n2ccc(C(=O)N3CCN(C)CC3C)n2)cc1` (configuration not stated), the cytotoxicity at 70.5 h is -5.83%. In the case of `Cc1cccc(-c2nc(C)nn2CC(=O)N(C)C2CC2)c1` it was -5.01%. In the case of `O=C(Cc1cccc(F)c1)NCCNCc1ccc2c(c1)CCO2` it was 6.87%; in that of `Cc1ccc(-c2nc(CNC3CCc4ncnn4C3)co2)c(C)c1` (configuration not stated), 1.75%; in that of `O=C(Cc1cccc(F)c1)NCCNCc1ccco1`, 19.4%.

Regarding `COc1ccc(CCN2CCC(N3CCN(C)C3=O)CC2)cc1`, the cytotoxicity at 70.5 h is -8.36%. The result for `Cc1nc(C)n(C2CCCN(C(=O)Cc3n[nH]c4ccccc34)C2)n1` (configuration not stated) reads 1.52%; that for `Cn1ccc(CN2CCC(OCCc3ccccc3)CC2)cc1=O`, -5.72%.

For the origin of these results see ChEMBL document CHEMBL3507680, “University of Dundee, Gates Library screen for HepG2 cell viability”.
